Where “and” joins values, the source holds several entries; their conditions need not be identical. Identical values can stand only once. Records with an inconclusive call do not appear.
System: MX-1 breast xenograft, nude mice, tumor weight T/C
Assay: NCI In Vivo Anticancer Drug Screen. Data for tumor model Human Mammary Carcinoma MX-1 Xenograft (intrarenal inoculation) in NU/NU Swiss (nude) mice
Details: endpoint: mean tumor weight change, higher = larger tumour
Method in brief: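 Activity is given as a ratio, with each measurement in the compound-treated arm divided by the matching measurement in vehicle-dosed controls. Tumour size or survival serves as the measured parameter.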

[1] = dose: 300.0 mg/kg/injection, schedule: Q04DX003 (sc), vehicle: suspension in saline
[2] = dose: 300.0 mg/kg/injection, schedule: Q04DX003 (sc), vehicle: saline with Tween-80
[3] = dose: 600.0 mg/kg/injection, schedule: Q04DX003 (sc), vehicle: saline with Tween-80
[4] = dose: 1200.0 mg/kg/injection, schedule: Q04DX003 (sc), vehicle: saline with Tween-80
[5] = dose: 400.0 mg/kg/injection, schedule: Q01DX010 (sc), vehicle: saline with Tween-80

## Cc1c(N)nc([C@H](CC(N)=O)NC[C@H](N)C(N)=O)nc1C(=O)N[C@H](C(=O)N[C@H](C)[C@@H](O)[C@H](C)C(=O)N[C@H](C(=O)NCCc1nc(-c2nc(C(=O)NCCC[S+](C)C)cs2)cs1)[C@@H](C)O)C(OC1OC(CO)C(O)C(O)C1OC1OC(CO)C(O)C(OC(N)=O)C1O)c1cnc[nH]1 (some centres not stated)
dose: 4.0 mg/kg/injection, schedule: Q01DX010 (ip), vehicle: saline
  T/C: 86 % of control
dose: 6.25 mg/kg/injection, schedule: Q04DX003 (sc), vehicle: saline
  T/C: 93 % of control
dose: 8.0 mg/kg/injection, schedule: Q01DX010 (ip), vehicle: saline
  T/C: 55 % of control
dose: 8.0 mg/kg/injection, schedule: Q04DX003 (sc), vehicle: saline
  T/C: 87 % of control
dose: 13.3 mg/kg/injection, schedule: Q04DX003 (sc), vehicle: saline
  T/C: 67 % of control
dose: 13.33 mg/kg/injection, schedule: Q04DX003 (ip), vehicle: saline
  T/C: 101 % of control and 120 % of control
dose: 13.33 mg/kg/injection, schedule: Q04DX003 (sc), vehicle: saline
  T/C: 45 % of control
dose: 16.0 mg/kg/injection, schedule: Q01DX010 (ip), vehicle: saline
  T/C: 49 % of control
dose: 16.0 mg/kg/injection, schedule: Q04DX003 (sc), vehicle: saline
  T/C: 46 % of control
dose: 25.0 mg/kg/injection, schedule: Q04DX003 (sc), vehicle: saline
  T/C: 50 % of control
dose: 26.65 mg/kg/injection, schedule: Q04DX003 (ip), vehicle: saline
  T/C: 71 % of control
dose: 26.66 mg/kg/injection, schedule: Q04DX003 (ip), vehicle: saline
  T/C: 89 % of control
dose: 32.0 mg/kg/injection, schedule: Q01DX010 (ip), vehicle: saline
  T/C: 53 % of control
dose: 32.0 mg/kg/injection, schedule: Q04DX003 (sc), vehicle: saline
  T/C: 15 % of control
dose: 37.5 mg/kg/injection, schedule: Q04DX003 (sc), vehicle: saline
  T/C: 80 % of control
dose: 50.0 mg/kg/injection, schedule: Q04DX003 (sc), vehicle: saline
  T/C: 46 % of control
dose: 53.3 mg/kg/injection, schedule: Q04DX003 (ip), vehicle: saline
  T/C: 63 % of control
dose: 53.3 mg/kg/injection, schedule: Q04DX003 (sc), vehicle: saline
  T/C: 49 % of control
dose: 53.33 mg/kg/injection, schedule: Q04DX003 (ip), vehicle: saline
  T/C: 59 % of control
dose: 53.33 mg/kg/injection, schedule: Q04DX003 (sc), vehicle: saline
  T/C: 106 % of control
dose: 75.0 mg/kg/injection, schedule: Q04DX003 (sc), vehicle: saline
  T/C: 30 % of control
dose: 106.6 mg/kg/injection, schedule: Q04DX003 (ip), vehicle: saline
  T/C: 88 % of control
dose: 106.6 mg/kg/injection, schedule: Q04DX003 (sc), vehicle: saline
  T/C: 51 % of control
dose: 106.66 mg/kg/injection, schedule: Q04DX003 (sc), vehicle: saline
  T/C: 64 % of control
dose: 150.0 mg/kg/injection, schedule: Q04DX003 (sc), vehicle: saline
  T/C: 17 % of control

## CO[C@@]12[C@@H]3N[C@@H]3CN1C1=C(C(=O)C(NCCc3ccccn3)=C(C)C1=O)[C@@H]2COC(N)=O
dose: 6.25 mg/kg/injection, schedule: Q04DX003 (ip), vehicle: saline with Tween-80
  T/C: -84 % of control
dose: 12.5 mg/kg/injection, schedule: Q04DX003 (ip), vehicle: saline with Tween-80
  T/C: -21 % of control
dose: 25.0 mg/kg/injection, schedule: Q04DX003 (ip), vehicle: saline with Tween-80
  T/C: -95 % of control

## CCCCCCCCNc1cc2c3c(c1)CCCN3CCC2
dose: 3.0 mg/kg/injection, schedule: Q04DX003 (sc), vehicle: Klucel (hydroxypropylcellulose) (HPC)
  T/C: 110 % of control
dose: 6.0 mg/kg/injection, schedule: Q04DX003 (sc), vehicle: Klucel (hydroxypropylcellulose) (HPC)
  T/C: 74 % of control
dose: 12.0 mg/kg/injection, schedule: Q04DX003 (sc), vehicle: Klucel (hydroxypropylcellulose) (HPC)
  T/C: 108 % of control
dose: 24.0 mg/kg/injection, schedule: Q04DX003 (sc), vehicle: Klucel (hydroxypropylcellulose) (HPC)
  T/C: 51 % of control

## N=C(N)SCc1cccc2c(=O)cc(-c3ccccc3)oc12
[1]
  T/C: 110 % of control

## Nc1ncnc2c(C3OC(CO)C(O)C3O)[nH]nc12 (configuration not stated)
dose: 75.0 mg/kg/injection, schedule: Q04DX003 (sc), vehicle: Klucel (hydroxypropylcellulose) (HPC)
  T/C: -100 % of control
dose: 75.0 mg/kg/injection, schedule: Q04DX003 (sc), vehicle: suspension in saline
  T/C: 5 % of control
dose: 150.0 mg/kg/injection, schedule: Q04DX003 (sc), vehicle: Klucel (hydroxypropylcellulose) (HPC)
  T/C: -100 % of control
dose: 150.0 mg/kg/injection, schedule: Q04DX003 (sc), vehicle: suspension in saline
  T/C: 5 % of control
[1]
  T/C: -79 % of control

## C[CH2][Sn]([CH2]C)([CH2]C(=O)OC)[CH2]C(=O)OC
dose: 12.5 mg/kg/injection, schedule: Q04DX003 (sc), vehicle: saline with Tween-80
  T/C: 79 % of control
dose: 25.0 mg/kg/injection, schedule: Q04DX003 (sc), vehicle: saline with Tween-80
  T/C: 116 % of control

## CCCCCCCCCCS(=O)CC(CO)NC(=O)/C=C/c1c(C)[nH]c(=O)[nH]c1=O (configuration not stated)
dose: 9.38 mg/kg/injection, schedule: Q04DX003 (sc), vehicle: distilled water + Tween-80
  T/C: 88 % of control
dose: 18.75 mg/kg/injection, schedule: Q04DX003 (sc), vehicle: distilled water + Tween-80
  T/C: 113 % of control
dose: 37.5 mg/kg/injection, schedule: Q04DX003 (sc), vehicle: distilled water + Tween-80
  T/C: 46 % of control

## O=c1cnn(C2OC(CO)C(O)C2O)c(=O)[nH]1 (configuration not stated)
dose: 200.0 mg/kg/injection, schedule: Q01DX010 (sc), vehicle: saline
  T/C: 79 % of control
dose: 400.0 mg/kg/injection, schedule: Q01DX010 (sc), vehicle: saline
  T/C: 77 % of control

## Cc1cc(O)c(N=Nc2ccc(C(=O)O)cc2)cc1C
[2]
  T/C: 123 % of control
[3]
  T/C: 124 % of control
dose: 2400.0 mg/kg/injection, schedule: Q04DX003 (sc), vehicle: saline with Tween-80
  T/C: 92 % of control

## O=Cc1c(O)c2ccccc2[nH]c1=O
dose: 150.0 mg/kg/injection, schedule: Q04DX003 (sc), vehicle: saline with Tween-80
  T/C: 118 % of control
[2]
  T/C: 99 % of control
[3]
  T/C: 86 % of control

## C=C(C)C(=O)OC1C/C(CO)=C\C(O)C/C(C)=C/C2OC(=O)C(=C)C21 (configuration not stated)
dose: 20.0 mg/kg/injection, schedule: Q04DX003 (sc), vehicle: saline + alcohol
  T/C: 55 % of control
dose: 40.0 mg/kg/injection, schedule: Q04DX003 (sc), vehicle: saline + alcohol
  T/C: 106 % of control
dose: 80.0 mg/kg/injection, schedule: Q04DX003 (sc), vehicle: saline + alcohol
  T/C: 66 % of control

## CCOc1cc2c(cc1C(C)c1ccc(OC)cc1)OCO2 (configuration not stated)
dose: 150.0 mg/kg/injection, schedule: Q04DX003 (sc), vehicle: distilled water + alcohol
  T/C: 43 % of control
dose: 300.0 mg/kg/injection, schedule: Q04DX003 (sc), vehicle: distilled water + alcohol
  T/C: 31 % of control
dose: 600.0 mg/kg/injection, schedule: Q04DX003 (sc), vehicle: distilled water + alcohol
  T/C: 19 % of control
dose: 1200.0 mg/kg/injection, schedule: Q04DX003 (sc), vehicle: distilled water + alcohol
  T/C: 52 % of control

## NC(=S)N/N=C/c1ccc(OC(=O)COc2ccccc2)cn1
[2]
  T/C: 101 % of control
[3]
  T/C: 103 % of control
[4]
  T/C: 76 % of control

## CCCCN(CCCC)C(Cl)=Nc1ccccc1
dose: 800.0 mg/kg/injection, schedule: Q04DX003 (sc), vehicle: other
  T/C: 89 % of control
dose: 1600.0 mg/kg/injection, schedule: Q04DX003 (sc), vehicle: other
  T/C: 124 % of control

## Cc1ccccc1SSc1ccccc1C
dose: 200.0 mg/kg/injection, schedule: Q01DX010 (sc), vehicle: saline with Tween-80
  T/C: 88 % of control
[5]
  T/C: 96 % of control
dose: 800.0 mg/kg/injection, schedule: Q01DX010 (sc), vehicle: saline with Tween-80
  T/C: 91 % of control

## CN1CCN(Cc2nc3cccc4c3c([n+]2[O-])-c2ccccc2-4)CC1
dose: 12.5 mg/kg/injection, schedule: Q01DX010 (sc), vehicle: saline with Tween-80
  T/C: 72 % of control
dose: 25.0 mg/kg/injection, schedule: Q01DX010 (sc), vehicle: saline with Tween-80
  T/C: 96 % of control
[5]
  T/C: 35 % of control

## C/C(=N\NC(N)=O)c1cccc(/C(C)=N/NC(N)=O)n1
[3]
  T/C: 98 % of control
[4]
  T/C: 74 % of control

## C[N+](C)(C)c1ncnc2nc[nH]c12
dose: 50.0 mg/kg/injection, schedule: Q01DX010 (sc), vehicle: saline
  T/C: 57 % of control
dose: 100.0 mg/kg/injection, schedule: Q01DX010 (sc), vehicle: saline
  T/C: 38 % of control

## COC1=C(OC)C(=O)C(Sc2ccc3ccccc3c2)=CC1=O
dose: 100.0 mg/kg/injection, schedule: Q04DX003 (sc), vehicle: saline with Tween-80
  T/C: 97 % of control
dose: 200.0 mg/kg/injection, schedule: Q04DX003 (sc), vehicle: saline with Tween-80
  T/C: 68 % of control
dose: 400.0 mg/kg/injection, schedule: Q04DX003 (sc), vehicle: saline with Tween-80
  T/C: 88 % of control
dose: 800.0 mg/kg/injection, schedule: Q04DX003 (sc), vehicle: saline with Tween-80
  T/C: 61 % of control
